Test results reported in US20090075989A1, “NON-STEROIDAL PROGESTERONE RECEPTOR MODULATORS” (priority 2006, published 2009).

Target: T1, progesterone receptor PR (PR-B) (Homo sapiens, UniProt P06401)
T1 sequence (P06401 1-933): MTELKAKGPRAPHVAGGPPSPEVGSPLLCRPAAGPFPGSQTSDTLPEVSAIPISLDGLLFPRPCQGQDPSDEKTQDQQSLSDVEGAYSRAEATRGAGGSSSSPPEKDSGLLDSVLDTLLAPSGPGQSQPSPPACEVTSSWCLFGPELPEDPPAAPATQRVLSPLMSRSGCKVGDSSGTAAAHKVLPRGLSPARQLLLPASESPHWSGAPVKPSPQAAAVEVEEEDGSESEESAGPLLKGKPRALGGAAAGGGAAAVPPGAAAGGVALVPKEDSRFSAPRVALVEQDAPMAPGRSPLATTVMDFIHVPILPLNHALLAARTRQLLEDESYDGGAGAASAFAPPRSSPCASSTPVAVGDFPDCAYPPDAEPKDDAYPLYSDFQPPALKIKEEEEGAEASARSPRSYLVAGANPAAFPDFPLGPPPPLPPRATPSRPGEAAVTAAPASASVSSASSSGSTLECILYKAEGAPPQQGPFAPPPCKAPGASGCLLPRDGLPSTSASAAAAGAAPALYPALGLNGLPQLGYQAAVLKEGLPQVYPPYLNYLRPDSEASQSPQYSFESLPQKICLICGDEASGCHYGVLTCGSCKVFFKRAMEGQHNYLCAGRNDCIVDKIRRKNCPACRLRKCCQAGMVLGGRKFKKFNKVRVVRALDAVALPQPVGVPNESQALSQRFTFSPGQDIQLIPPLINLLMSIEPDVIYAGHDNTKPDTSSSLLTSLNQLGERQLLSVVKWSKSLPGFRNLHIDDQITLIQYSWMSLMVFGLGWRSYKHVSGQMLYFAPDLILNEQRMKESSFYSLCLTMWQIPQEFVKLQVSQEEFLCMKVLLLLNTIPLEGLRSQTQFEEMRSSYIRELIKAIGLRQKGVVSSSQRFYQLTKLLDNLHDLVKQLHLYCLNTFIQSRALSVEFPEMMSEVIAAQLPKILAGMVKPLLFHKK
Experiment: Transactivation assay, antagonism on the progesterone receptor PR
Assay type: cell-based
Settings: transactivation test for antagonistic activity on (PR-B)
Method: Antagonism on the progesterone receptor PR
The transactivation assay is carried out as described in WO 02/054064.

SMILES	IC50
Cc1noc(=O)c2ccc(NC(=O)C(O)(Cc3ccccc3)c3ccccc3)cc12 (racemic) [Example 5, rac-6-[2-hydroxy-2,3-diphenylpropionylamino]-4-methyl-2,3-benzoxazin-1-one]	0.005 µM
Cc1noc(=O)c2ccc(NC(=O)C(O)(Cc3ccccc3)c3ccc([N+](=O)[O-])cc3)cc12 (racemic) [Example 10, rac-6-[2-hydroxy-2-(4-nitrophenyl)-3-phenylpropionylamino]-4-methyl-2,3-benzoxazin-1-one]	0.005 µM
Cc1noc(=O)c2ccc(NC(=O)C(O)(C#Cc3ccccc3)c3ccccc3)cc12 (racemic) [Example 1b, rac-6-[2,4-diphenyl-2-hydroxybut-3-ynoylamino]-4-methyl-2,3-benzoxazin-1-one]	0.03 µM
COc1ccc(C#CC(O)(C(=O)Nc2ccc(C#N)c(Cl)c2)c2ccccc2)cc1 (racemic) [Example 80]	0.04 µM
N#Cc1ccc(NC(=O)C(O)(Cc2ccccc2)c2ccccc2)cc1C(F)(F)F (racemic) [Example 34b, rac-N-(4-cyano-3-trifluoromethylphenyl)-2-hydroxy-2,3-diphenylpropionamide]	0.071 µM
N#Cc1ccc(NC(=O)C(O)(Cc2ccccc2)c2ccccc2)cc1Cl (racemic) [Example 29b, rac-N-(3-chloro-4-cyanophenyl)-2-hydroxy-2,3-diphenylpropionamide]	0.04 µM

Now from value to compound:

IC50	SMILES
0.05 µM	Cc1noc(=O)c2ccc(NC(=O)C(O)(Cc3ccccc3)c3ccc(N(C)C)cc3)cc12 (racemic) [Example 48d, rac-6-[2-hydroxy-2-(4-dimethylaminophenyl)-3-phenylpropionylamino]-4-methyl-2,3-benzoxazin-1-one]
0.0032 µM	Cc1noc(=O)c2ccc(NC(=O)C(O)(Cc3ccccc3)c3ccc(C(C)(C)C)cc3)cc12 (racemic) [Example 45c, rac-6-[2-hydroxy-2-(4-(1,1-dimethylethyl)phenyl)-3-phenylpropionylamino]-4-methyl-2,3-benzoxazin-1-one]
0.0398 µM	Cc1noc(=O)c2ccc(NC(=O)C(O)(Cc3ccccc3)c3ccc(-c4cccs4)cc3)cc12 (racemic) [Example 75, rac-6-[2-hydroxy-2-(4-thiophen-2-ylphenyl)-3-phenylpropionylamino]-4-methyl-2,3-benzoxazin-1-one]
0.0089 µM	Cc1noc(=O)c2ccc(NC(=O)C(O)(Cc3ccccc3)c3cccs3)cc12 (racemic) [Example 64b, rac-6-[2-hydroxy-2-(thiophen-2-yl)-3-phenylpropionylamino]-4-methyl-2,3-benzoxazin-1-one]
0.032 µM	CC(=O)c1ccc(C(O)(Cc2ccccc2)C(=O)Nc2ccc3c(=O)onc(C)c3c2)cc1 (racemic) [Example 55f, rac-6-[2-hydroxy-2-(4-acetylphenyl)-3-phenylpropionylamino]-4-methyl-2,3-benzoxazin-1-one]
